# Measured values published in patent US20050202463A1, “Modulators of dimethylarginine dimethylaminohydrolase and methods of use thereof” (priority 2003, published 2005).
# Columns and labels:
# mice = assay: plasma glucose clearance after i.p. insulin (insulin sensitivity); type: in vivo; conditions: wild-type female mice, ADMA 75 mg/kg i.p. after 4 h fasting, insulin injected 2 h later, compared to PBS-treated wild-type mice
# Description: Experiments were performed to assess insulin sensitivity by measuring plasma glucose clearance rate in these DDAH transgenic mice. After 4 hours of fasting, wildtype female mice were injected intraperitoneally with either ADMA (75 mg/kg), which induces insulin resistance, or phosphate buffered saline (PBS); the same dosage was given to the transgenic mice (n=3 in each group). After two hours, insulin was injected; venous blood glucose was assayed by a glucometer every 5 minutes for an hour. The half-life of glucose disappearance from plasma was calculated using a first-order decay model; plasma ADMA was measured by HPLC.
# ADMA levels = conditions: reported in the literature (Stuhlinger et al. 2002; Wheatcroft et al. 2003); cited from earlier work
smiles,measurement,setting,value
"CN(C)C(N)=NCCC[C@H](N)C(=O)O [ADMA, asymmetric dimethylarginine]",plasma glucose response to insulin,mice,delayed and attenuated drop in plasma glucose in response to insulin
CN(C)C(=N)N=C(N)N [metformin],effect on ADMA levels,ADMA levels,decrease circulating ADMA levels
